Columns and labels:
[1] = molecular target: α6-100R-β3γ2 (α6β3γ2s) (Rattus norvegicus, UniProt P18508+P30191, P30191:R119Q); experiment: radioligand association/dissociation kinetics, filtration; assay type: binding
[2] = molecular target: α6-100R-β3γ2 (α6β3γ2s) (Rattus norvegicus, UniProt P18508+P30191); experiment: as above; assay type: binding
Sequence of α6-100R-β3γ2 (α6β3γ2s) (Rattus norvegicus, UniProt P18508+P30191) (P30191 20-453): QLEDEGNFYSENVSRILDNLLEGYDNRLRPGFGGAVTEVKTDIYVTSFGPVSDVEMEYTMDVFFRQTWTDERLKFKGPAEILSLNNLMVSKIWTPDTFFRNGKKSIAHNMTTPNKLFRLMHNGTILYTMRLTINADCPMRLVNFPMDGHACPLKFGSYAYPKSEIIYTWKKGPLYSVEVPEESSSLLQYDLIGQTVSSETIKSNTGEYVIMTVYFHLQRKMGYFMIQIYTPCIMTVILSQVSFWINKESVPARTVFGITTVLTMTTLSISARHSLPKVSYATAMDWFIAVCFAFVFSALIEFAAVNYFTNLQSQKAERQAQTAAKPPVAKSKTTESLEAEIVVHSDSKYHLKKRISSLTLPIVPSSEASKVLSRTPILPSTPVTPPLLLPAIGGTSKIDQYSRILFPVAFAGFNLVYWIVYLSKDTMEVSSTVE
Sequence of α6-100R-β3γ2 (α6β3γ2s) (Rattus norvegicus, UniProt P18508+P30191) (P18508 39-466): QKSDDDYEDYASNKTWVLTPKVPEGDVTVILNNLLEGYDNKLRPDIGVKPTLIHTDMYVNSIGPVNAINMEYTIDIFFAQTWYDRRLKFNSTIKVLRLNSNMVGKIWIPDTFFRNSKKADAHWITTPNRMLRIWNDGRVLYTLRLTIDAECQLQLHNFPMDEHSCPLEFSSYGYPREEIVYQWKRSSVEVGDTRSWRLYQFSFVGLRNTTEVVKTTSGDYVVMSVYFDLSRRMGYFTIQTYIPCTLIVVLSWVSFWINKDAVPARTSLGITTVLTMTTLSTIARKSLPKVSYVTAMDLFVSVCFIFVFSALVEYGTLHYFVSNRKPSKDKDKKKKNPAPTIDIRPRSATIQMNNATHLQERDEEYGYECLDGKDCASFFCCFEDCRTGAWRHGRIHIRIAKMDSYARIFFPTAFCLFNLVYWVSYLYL
Sequence of α6-100R-β3γ2 (α6β3γ2s) (Rattus norvegicus, UniProt P18508+P30191) (P63079 26-473 partner): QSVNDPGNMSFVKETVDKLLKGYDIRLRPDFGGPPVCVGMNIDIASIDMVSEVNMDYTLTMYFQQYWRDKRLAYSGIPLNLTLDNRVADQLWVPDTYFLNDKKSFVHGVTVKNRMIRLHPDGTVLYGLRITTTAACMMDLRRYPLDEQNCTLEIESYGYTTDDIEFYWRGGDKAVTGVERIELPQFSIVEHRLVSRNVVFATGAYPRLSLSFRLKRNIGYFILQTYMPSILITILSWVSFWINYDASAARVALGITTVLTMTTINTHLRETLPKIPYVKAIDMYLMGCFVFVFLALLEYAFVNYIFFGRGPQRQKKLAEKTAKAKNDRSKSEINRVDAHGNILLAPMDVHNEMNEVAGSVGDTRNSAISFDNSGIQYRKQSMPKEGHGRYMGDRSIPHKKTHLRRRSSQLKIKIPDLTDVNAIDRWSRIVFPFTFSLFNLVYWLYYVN

Sequence of α6-100R-β3γ2 (α6β3γ2s) (Rattus norvegicus, UniProt P18508+P30191, P30191:R119Q) (P30191 20-453 R119Q): as the sequence (P30191 20-453) above, with R100Q counted along it
Sequence of α6-100R-β3γ2 (α6β3γ2s) (Rattus norvegicus, UniProt P18508+P30191, P30191:R119Q) (P18508 39-466): as the sequence (P18508 39-466) above
Sequence of α6-100R-β3γ2 (α6β3γ2s) (Rattus norvegicus, UniProt P18508+P30191, P30191:R119Q) (P63079 26-473 partner): as the sequence (P63079 26-473 partner) above

Structure (SMILES): CCOC(=O)c1ncn2c1CN(C)C(=O)c1cc(N=[N+]=[N-])ccc1-2 [[^3H]Ro 15-4513]
- Kd [1]: 1 ± 0.1 nM
- Kd [2]: 2.4 ± 0.4 nM

From article PMC3137752 (Alcohol (Fayetteville, N.Y.), 2010)
